Measured values published in paper PMC5735376, “Dual Level Statistical Investigation of Equilibrium Solubility in Simulated Fasted and Fed Intestinal Fluid” (Molecular Pharmaceutics, 2017).
Where two headings read alike, the source gives them in different places.

How the values were obtained:
[1] = set-up: method as in ref 14, Figure 2; settings: fed, published; Figure 2; cited from earlier work
[2] = Equilibrium solubility in simulated intestinal fluid, dual level DoE, fasted arm; type: physicochemical; settings: for statistical significance of DoE factor BS:PL on equilibrium solubility / statistical significance of DoE factor bile salt on equilibrium solubility / statistical significance of DoE factor cholesterol on equilibrium solubility / statistical significance of DoE factor lecithin on equilibrium solubility / statistical significance of DoE factor monoglyceride on equilibrium solubility / statistical significance of DoE factor pH on equilibrium solubility / statistical significance of DoE factor sodium oleate on equilibrium solubility: fasted, current study (Figure 3)
Source text: (§1) For each media parameter (bile salt, lecithin, sodium oleate, monoglyceride, cholesterol, pH and BS: PL ratio) lower and upper limit concentration values for fasted and fed states were defined, Table 1. Using Minitab 17.2.1 and a custom experimental design, a 1/16 of the full factorial DoE with the seven factors and two levels (lower and upper limits) was constructed (8 experiments around the upper and lower levels plus two center points) separately for the fasted and the fed states. These two tables were then applied as an input for a factorial custom design of experiment which combined the fasted and fed using all 20 data points to provide an overall analysis. The study therefore consists of three arms, two smaller (10 data point) fasted and fed arms, which are then merged into a larger (20 data point) combined arm.
(§2) When designing and analyzing the DoE, only a factor’s main effects and 2 way interactions have been considered and 3 way interactions or more were not included. For each DoE the magnitude for each factor’s effect on equilibrium solubility was determined by the standardized effect value for all of the individual factors and the significant 2-way interactions. This value was used to articulate whether these factors are increasing or decreasing drug solubility.
(§3) The solution was prepared by the addition of an excess amount (above the estimated solubility) of solid for each compound investigated to a centrifuge tube (15 mL Corning Centristar cap, polypropylene RNase/DNase free, nonpyrogenic) followed by the addition of each component of the simulated intestinal fluid media according to the run order generated by the DoE. After all of the media components were added, pH was adjusted to 5, 6, or 7 according to the run order using 0.1 M HCl or 0.1 M KOH and tubes were capped and placed on an orbital shaker (OS 5 basic Yellowline, IKA, Germany) for 1 h after which the pH was readjusted if required. The 20 different tubes were then shaken in a tube rotator for 24 h at 40 rpm at 37 °C to simulate intestinal fluid conditions. After 24 h, a 1 mL amount was taken from each of the 20 tubes and transferred to a 1.5 mL Eppendorf tube then centrifuged at 15 000 rpm for 5 min. Following centrifugation 0.5 mL of the supernatant solution was transferred to an HPLC vial to analyze drug solubility using HPLC (Table 4).

[3] = set-up: method as in ref 13, Figure 2; settings: fasted, published; Figure 2; cited from earlier work
[4] = cited from earlier work
[5] = Statistical comparison of equilibrium solubility data sets (Mann-Whitney test / two-sample t-test); type: physicochemical; settings: for statistical comparison of fasted against fed equilibrium solubility: current dual level DoE, where significant, fasted solubility lower than fed; for statistical comparison of dual level fasted with published fasted equilibrium solubility: current fasted arm vs published fasted DoE
Source text: The Kolmogorov normality test was used in Minitab to assess the normality distribution of each data set. A Mann–Whitney test was used to evaluate the median between two data sets (not normally distributed) and the two-sample t-test was used to evaluate the mean of two data sets (normally distributed).

[6] = Equilibrium solubility in simulated intestinal fluid, dual level DoE, fed arm; type: physicochemical; settings: fed, current study (Figure 3)
Source text: as §1, §2, §3

[7] = Equilibrium solubility in simulated intestinal fluid, dual level DoE, combined fasted and fed arm; type: physicochemical; settings: for significant DoE factors influencing solubility: combined arm (seven possible factors per drug), significance ±2; for significant two way factor interactions on solubility: eight two way interactions, Figure 4
Source text: as §1, §2, §3

Row | Compound | statistical significance of DoE factor bile salt on equilibrium solubility [1] | statistical significance of DoE factor lecithin on equilibrium solubility [1] | statistical significance of DoE factor monoglyceride on equilibrium solubility [1] | statistical significance of DoE factor pH on equilibrium solubility [1] | statistical significance of DoE factor BS:PL on equilibrium solubility [2] | statistical significance of DoE factor bile salt on equilibrium solubility [2] | statistical significance of DoE factor cholesterol on equilibrium solubility [2] | statistical significance of DoE factor lecithin on equilibrium solubility [2] | statistical significance of DoE factor monoglyceride on equilibrium solubility [2] | statistical significance of DoE factor pH on equilibrium solubility [2] | statistical significance of DoE factor sodium oleate on equilibrium solubility [2] | statistical significance of DoE factor bile salt on equilibrium solubility [3] | statistical significance of DoE factor lecithin on equilibrium solubility [3] | statistical significance of DoE factor pH on equilibrium solubility [3] | statistical significance of DoE factor sodium oleate on equilibrium solubility [3] | statistical comparison of fasted against fed equilibrium solubility [5] | statistical significance of DoE factor BS:PL on equilibrium solubility [6] | statistical significance of DoE factor bile salt on equilibrium solubility [6] | statistical significance of DoE factor cholesterol on equilibrium solubility [6] | statistical significance of DoE factor lecithin on equilibrium solubility [6] | further results
1 | COc1cc(C(=O)NS(=O)(=O)c2ccccc2C)ccc1Cc1cn(C)c2ccc(NC(=O)OC3CCCC3)cc12 [zafirlukast] | S ^d ^g | NS ^e | NS ^e | S ^d ^g | NS ^e | NS ^e ^g | S ^d | NS ^e ^g | S ^d | S ^d | NS ^e ^g | S ^d ^g | S ^d ^g | S ^d | S ^d ^g | significant difference | NS ^e | NS ^e ^g | NS ^e | NS ^e | direction of cholesterol effect on solubility (standardized effect) ([2]; fasted arm, Figure 3): positive effect; direction of monoglyceride effect on solubility (standardized effect) ([2]; fasted arm, Figure 3): negative effect; pKa ([4]; reported): 4; statistical significance of DoE factor monoglyceride on equilibrium solubility [6]: NS ^e; statistical significance of DoE factor pH on equilibrium solubility [6]: NS ^e ^g; statistical significance of DoE factor sodium oleate on equilibrium solubility [6]: NS ^e; significant DoE factors influencing solubility [7]: no significant factors; significant two way factor interactions on solubility ([7]; combined arm): significant interactions
2 | CN1CC(=O)N2[C@H](c3ccc4c(c3)OCO4)c3[nH]c4ccccc4c3C[C@@H]2C1=O [tadalafil] | S ^d ^g | NS ^e | NS ^e | NS ^e | NS ^e | NS ^e ^g | NS ^e | NS ^e ^g | NS ^e | NS ^e ^g | NS ^e ^g | S ^d ^g | S ^d ^g | S ^d ^g | S ^d ^g | significant difference | NS ^e | NS ^e ^g | NS ^e | NS ^e | statistical significance of DoE factor sodium oleate on equilibrium solubility [1]: S ^d ^g; significant DoE factors influencing solubility ([2]; fasted and fed study arms together (14 possible values per drug), significance ±4): no significant factors; pKa ([4]; reported): 15; statistical comparison of dual level fasted with published fasted equilibrium solubility [5]: significantly different; statistical significance of DoE factor monoglyceride on equilibrium solubility [6]: NS ^e; statistical significance of DoE factor pH on equilibrium solubility [6]: NS ^e; statistical significance of DoE factor sodium oleate on equilibrium solubility [6]: NS ^e ^g; significance of sodium oleate for solubility ([7]; combined arm, Figure 4, significance ±2, positive solubility impact): significant
3 | O=C1NC(=O)C(c2ccccc2)(c2ccccc2)N1 [phenytoin] | S ^d ^g | NS ^e | S ^d ^g | S ^d ^g | S ^d | NS ^e ^g | S ^d | NS ^e ^g | NS ^e | S ^d | S ^d | S ^d ^g | S ^d ^g | S ^d | S ^d | no statistically significant difference | NS ^e | NS ^e ^g | NS ^e | NS ^e | statistical significance of DoE factor sodium oleate on equilibrium solubility [1]: S ^d ^g; direction of pH effect on solubility (standardized effect) ([2]; fasted and fed study arms, Figure 3): negative effect; direction of cholesterol effect on solubility (standardized effect) ([2]; fasted arm, Figure 3): significant negative solubility effect; pKa ([4]; no reference given): 8.1; statistical comparison of dual level fasted with published fasted equilibrium solubility [5]: significantly different; statistical comparison of dual level fed with published fed equilibrium solubility ([5]; current fed arm vs published fed DoE): significantly different; statistical significance of DoE factor monoglyceride on equilibrium solubility [6]: NS ^e ^g; statistical significance of DoE factor pH on equilibrium solubility [6]: NS ^e ^g; statistical significance of DoE factor sodium oleate on equilibrium solubility [6]: NS ^e ^g; variability of equilibrium solubility ([7]; across DoE media, fasted or fed arm, Figures 1 and 2): low solubility variability; significant DoE factors influencing solubility [7]: no significant factors; significant two way factor interactions on solubility ([7]; combined arm): significant interactions
